Test results as given in patent publication US12048686B2, “Compositions and methods for activating NRF2-dependent gene expression” (The University of Chicago, priority 2018, dated 2024).

Tests used:
[1] = LC-MS quantification of compound incubated with or without GSH (glutathione reactivity); assay type: physicochemical; conditions: 50 μM compound, GSH 1 mM in PBS, 1 hour and 48 hours
Experimental: FIG. 4 A high throughput screen identifies a non-covalent NRF2 activator chemical series which activate a robust NRF2 transcriptional program in multiple cell types. LC-MS quantification of CBR-470-1 (50 μM) incubated in the presence or absence of GSH (1 mM) in PBS for 1 hour (left) and 48 hours (right). Relative ion intensities within each time point were compared with representative chromatograms shown (n=2).

PGK1 = molecular target: T1, PGK1 (Homo sapiens, UniProt P00558); test: Isothermal dose response profiling of PGK1 against GAPDH; assay type: binding; conditions: 57° C., 0-333 μM
T1 sequence (P00558 1-417): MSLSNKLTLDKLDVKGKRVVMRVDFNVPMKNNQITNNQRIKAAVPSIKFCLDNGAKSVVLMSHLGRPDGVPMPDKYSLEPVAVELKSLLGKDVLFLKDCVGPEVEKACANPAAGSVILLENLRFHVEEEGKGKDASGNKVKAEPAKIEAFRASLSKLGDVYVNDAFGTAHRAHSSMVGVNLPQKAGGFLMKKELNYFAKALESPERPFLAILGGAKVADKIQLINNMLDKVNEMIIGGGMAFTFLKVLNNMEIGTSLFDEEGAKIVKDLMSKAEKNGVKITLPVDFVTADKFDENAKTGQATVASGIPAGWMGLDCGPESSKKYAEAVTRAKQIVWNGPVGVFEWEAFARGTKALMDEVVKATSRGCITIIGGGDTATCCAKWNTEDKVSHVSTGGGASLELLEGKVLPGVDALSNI
Experimental: FIG. 5A-E. A photoactivatable affinity probe-based approach identifies PGK1 as the relevant cellular target of CBR-470-1. (a) Silver staining and anti-biotin Western blots of ammonium sulfate fractionated lysates from UV-irradiated IMR32 cells treated with 5 μM for 1 hour with or without CBR-470-1 competition (250 μM) (n=3). Shown on the right are initial proteomic target results from gel-band digestion and LC-MS/MS analysis. (b) Dye-based thermal denaturation assay with recombinant PGK1 in the presence CBR-470-1 (20 μM) or vehicle alone (n=3). Calculated Tm values are listed. (c, d) Dose-dependent thermal stability assay of recombinant PGK1 and GAPDH in the presence of increasing doses of CBR-470-1 near the Tm of both proteins (57° C.) (c) (n=5) or room temperature (d) (n=3). Western blot of sample supernatants after centrifugation (13,000 rpm) detected total PGK1 and GAPDH protein, which were plotted in Prism (below). (e) ARE-LUC reporter activity in HEK293T cells with transient shRNA.
Isothermal dose response profiling of PGK1. In-vitro thermal profiling assay for recombinant proteins was performed by dissolving pure recombinant PGK1 and GAPDH into PBS and dividing equal amount of mixture into 9 aliquots. […] Samples were analyzed by SDS-PAGE and Western blot.

alveolar macrophages = test: PM exposure of alveolar macrophages (Example 6); assay type: cell-based
Source text: FIG. 30A-D. CBR-470 activates NRF2 and inhibits PM-induced inflammatory cytokine production from alveolar macrophages. (a-c) Indicated transcript levels in response to PM exposure for 4 hr in the presence and absence of CBR-470, PGK1 inhibitor (10 micromolar). (d) Western blot analysis of NRF2 protein levels under the conditions in a-c.
FIG. 31. Time dependent effects of CBR-470-1 on alveolar macrophage cytokine mRNA levels at specific timepoints
FIG. 32. […] This represents a distinct mechanism of action compared to many other pharmacologic NRF2 activators, which achieve efficacy through induction of ROS (reactive oxygen species).
Indicated transcript levels in response to PM exposure for 4 hr in the presence and absence of CBR-470-1, PGK1 inhibitor (10 micromolar). Western blot analysis of NRF2 protein levels. PM-exposure also results in activation of the NRF2 pathway, which is confirmed by increased transcript levels of its prototypical target Nqo1 (FIG. 30c) and NRF2 protein accumulation (FIG. 30d). […] FIG. 31 illustrates time dependent effects of CBR-470-1 on alveolar macrophage cytokine mRNA levels at specific timepoints. […] This represents a distinct mechanism of action compared to many other pharmacologic NRF2 activators, which achieve efficacy through induction of ROS (reactive oxygen species).

IMR32 cells = test: IMR32 viability with co-treatments (cell titer glo); assay type: cell-based; conditions: IMR32 cells, 48 hrs, combinations of doses with BBGC
Experimental: FIG. 38. PGK1 toxicity can be rescued with metabolites that are involved with GSH biosynthesis and quenching of reactive oxygen species and methylglyoxal. […] IMR32 cells treated for 48 hr in presence of indicated drugs.
PGK1 toxicity can be rescued with metabolites that are involved with GSH biosynthesis and quenching of reactive oxygen species and methylglyoxal.
IMR32 cells were treated for 48 hrs with CBR-470-1 and/or BBGC at combinations of doses in a synergy matrix (FIG. 41). […] Viability measured using cell titer glo assay (Promega). Viability decreased at higher concentrations of CBR-470-1 and BBGC start at 5 uM. […] Sensitivity of cell lines to direct inhibition of GLO1 (which detoxifies MGO) is generally correlated with sensitivity to PGK1 inhibition with CBR-470-1-consistent with MGO buildup playing a role in toxicity.

[2] = control and PM-treated cells, PM 4 hr

- reactivity in glutathione assays [1]: not reactive in glutathione assays
Structure (SMILES): CC(C)CN[C@H]1CS(=O)(=O)C[C@@H]1S(=O)(=O)c1ccc(Cl)cc1 [CBR-470-1]
- alteration of PGK1 stability, isothermal dose response against PGK1 and GAPDH (PGK1): selective, dose-dependent alteration of PGK1 stability
- ROS elevation (alveolar macrophages; alveolar macrophages): does not cause significant ROS elevation in alveolar macrophages
- overall cellular bioenergetics (alveolar macrophages; alveolar macrophages): only a slight decrease in overall cellular bioenergetics
- Il6 mRNA levels (alveolar macrophages; [2]): dose-dependent decreases in 116 and Tnfα mRNA levels in both control and PM-treated cells
- Tnfα mRNA levels (alveolar macrophages; [2]): dose-dependent decreases in 116 and Tnfα mRNA levels in both control and PM-treated cells
- NRF2-signaling (Nqo1 transcript, NRF2 protein) (alveolar macrophages; control and PM-treated macrophages): activates NRF2-signaling in both control and PM-treated macrophages
- viability in synergy matrix with BBGC (IMR32 cells): synergistic effects on viability rather than additivity
